Measured values taken from patent publication US20070185069A1, “Anti-angiogenic activity of 2-methoxyestradiol in combination with anti-cancer agents” (priority 2005, published 2007).
Where “and” joins values, the source holds several entries; their conditions need not be identical. Equal entries are not always repeated.

Key:
RPMI-8226 = RPMI-8226 xenograft model of myeloma; format: in vivo; conditions: RPMI-8226 model; Velcade, 2ME2 or both combined
[1] = test system: vascular endothelial cell proliferation; conditions: Ingber et al. 1990; cited from earlier work
[2] = test system: CT-26 syngeneic colon carcinoma; test: CT-26 syngeneic tumor model, subcutaneous; format: in vivo, BALB/c mice
Description: (§1) 2-methoxyestradiol (2ME2) is an endogenous metabolite of estradiol with antiproliferative, proapoptotic and antiangiogenic activity. […] A new formulation of 2ME2 with enhanced absorption, Panzem® NCD, is currently in clinical trials. In anticipation of Phase 2 clinical trials with Panzem® NCD, tests were conducted to assess its anti-tumor activity as either monotherapy or in combination with cytotoxic agents. In this preclinical study, the effectiveness of 2ME2 alone or with the antimetabolite, 5-Fluorouracil (5-FU) in the CT-26 syngeneic tumor model was evaluated. 5-FU is a well-recognized and commonly used antineoplastic agent used for treatment of colorectal cancer. […] Subsequent to these studies, male BALB/c mice were injected subcutaneously with 1×10^6 CT-26 cells. Starting 7 days after tumor cell inoculation when mean tumor volume was approximately 100 mm^3, cohorts of mice (n=5/group) began treatment with (a) vehicle alone; (b) 2ME@200mg/kg p.o. q.d.; (c) 5-FU 30mg/kg p.o. q.d.×5; (d) or a combination of 5-FU at 30 mg/kg p.o. q.d.×5 with 2ME2 at 50, 100, or 200 mg/kg p.o. q.d. […] Cohorts of mice receiving the combination of 5-FU and 2ME2 had oral administrations in the A.M. (5-FU) and the P.M. (2ME2).

in vivo = test: in vivo
Description: as §1

U87 MG ectopic tumors [3] = test: Late stage U87 MG glioblastoma xenograft tumor model; format: in vivo, mice; conditions: for %Δ (Percent change in tumor volume from start of treatment): U87MG model, Temodar, 2ME2 or both combined; for inhibition of tumor growth: study day 28, treatment begun at about 300 mm^3, 2ME2 400 mg/kg p.o., q.d., Temodar 42 mg/kg p.o., q.d.×5
Description: In a second preclinical study the effectiveness of 2ME2 alone or in combination with Temodar® in the U87 MG glioblastoma xenograft tumor model was evaluated. Given the effectiveness of Temodar® at the maximally tolerated dose against 100 mm^3 tumor burden, we altered the treatment strategy such that treatment was initiated when mean tumor volume was approximately 300 mm^3. Cohorts of mice received treatment with either vehicle control, 2ME2 400 mg/kg p.o., q.d., Temodar® 42 mg/kg p.o., q.d×5, or 2ME2 400 mg/kg p.o., q.d. combined with Temodar® 42 mg/kg p.o., q.d.×5. Mice treated with the combination of 2ME2 and Temodar® received oral administration in the PM and AM, respectively.

[4] = Separate tolerability study of Temodar; parameters: species or system mice; conditions: mouse, in vivo, po, q.d.×5; read-out: maximally tolerated dose (MTD)
Description: Results: On study day 30, the mean tumor volume of the vehicle control animals was approximately 3000 mm^3. […] Using this dose and regimen in this model, Temodar® blocked U87 MG tumor growth by 98% (T/C =0.02).

U87 MG ectopic tumors [5] = test: Early stage U87 MG ectopic tumors, subcutaneous; format: in vivo, Balb/c SCID mice; conditions: study day 30; for inhibition of tumor growth: treatment begun at about 100 mm^3
Description: To assess whether 2ME2 or Temodarg® (Schering Corp. Kenilworth, N.J.) impact tumor growth of U87 MG, we designed the following experiment. Male Balb/c SCID mice were injected subcutaneously with 1×10^6 U87 MG tumor cells.

LLC met = LLC met tumor model; format: in vivo; conditions: 2ME2 or both combined
H2122 = H2122 tumor model, MST; format: in vivo; conditions: Paclitaxel, 2ME2 or both combined
HUVEC = HUVEC proliferation assay (BRDU); format: cell-based; conditions: 48 hours after application of drug
Description: (§2) U87 MG human glioblastoma cells were maintained in vitro in DMEM supplemented with 5% FBS, 2 mM glutamine, 1 mM sodium pyruvate, MEM vitamins and NEAA at 37° C. and 5% CO2. HUVEC were maintained in M 200 media. For both HUVEC and U87 MG proliferation assays, cells were plated in a 96 well plate at 5×10^3 cells per well and incubated at 37° C. overnight. At 24 hours, the media was aspirated and 2ME2 was administered to the cells at the following doses: […]. Proliferation was assessed 48 hours after application of drug by WST-1(U87 MG) or BRDU (HUVEC).

[6] = test system: U87 MG human glioblastoma cells; test: U87 MG proliferation assay (WST-1); format: cell-based; conditions: U87 MG versus HUVEC
Description: as §2

PC3 = PC3 tumor model, XRT combination; format: in vivo; conditions: 2ME2 or both combined
estrogen receptor β = estrogen receptor β (Homo sapiens, UniProt Q92731); conditions: LaVallee et al. 2002; cited from earlier work
Sequence of estrogen receptor β (Q92731 whole entry): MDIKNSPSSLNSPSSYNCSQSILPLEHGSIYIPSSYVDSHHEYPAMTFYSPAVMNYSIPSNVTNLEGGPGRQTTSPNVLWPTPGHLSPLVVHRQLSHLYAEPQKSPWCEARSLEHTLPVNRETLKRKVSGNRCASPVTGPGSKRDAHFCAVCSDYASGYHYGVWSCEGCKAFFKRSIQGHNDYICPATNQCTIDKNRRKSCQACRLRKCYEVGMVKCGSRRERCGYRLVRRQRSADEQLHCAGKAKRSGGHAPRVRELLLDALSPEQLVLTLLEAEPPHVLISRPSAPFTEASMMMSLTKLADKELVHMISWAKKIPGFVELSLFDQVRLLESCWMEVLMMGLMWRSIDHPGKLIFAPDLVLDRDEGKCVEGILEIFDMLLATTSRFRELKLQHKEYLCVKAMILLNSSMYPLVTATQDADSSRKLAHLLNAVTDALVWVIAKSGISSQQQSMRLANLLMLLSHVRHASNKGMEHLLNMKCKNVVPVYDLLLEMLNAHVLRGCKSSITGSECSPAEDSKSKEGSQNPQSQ

estrogen receptor α = target: T1, estrogen receptor α (Homo sapiens, UniProt P03372); conditions: LaVallee et al. 2002; cited from earlier work
T1 sequence (P03372 1-595): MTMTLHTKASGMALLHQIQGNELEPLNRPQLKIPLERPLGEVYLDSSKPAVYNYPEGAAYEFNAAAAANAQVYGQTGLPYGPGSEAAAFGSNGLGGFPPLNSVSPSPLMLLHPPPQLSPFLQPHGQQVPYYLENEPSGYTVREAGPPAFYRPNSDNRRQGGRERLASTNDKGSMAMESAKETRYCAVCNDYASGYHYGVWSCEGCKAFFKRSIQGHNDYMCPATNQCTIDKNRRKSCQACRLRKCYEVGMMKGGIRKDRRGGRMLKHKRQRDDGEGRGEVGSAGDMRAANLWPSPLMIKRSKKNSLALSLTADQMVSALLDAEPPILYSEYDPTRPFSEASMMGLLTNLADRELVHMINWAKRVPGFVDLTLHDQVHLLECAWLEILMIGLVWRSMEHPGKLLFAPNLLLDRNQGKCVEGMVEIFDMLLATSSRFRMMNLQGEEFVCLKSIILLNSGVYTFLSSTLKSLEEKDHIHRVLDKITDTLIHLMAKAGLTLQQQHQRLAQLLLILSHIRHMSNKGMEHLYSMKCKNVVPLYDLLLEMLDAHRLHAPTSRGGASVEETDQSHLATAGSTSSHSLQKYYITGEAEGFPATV

CT-26 cells = test: In vitro inhibition of proliferation of CT-26 cells; format: cell-based; conditions: preliminary in vitro studies
U87MG = U87MG tumor model, CPT-11 combination; format: in vivo; conditions: CPT-11, 2ME2 or both combined
[7] = CT-26 model (Table 1), 5-FU, 2ME2 or both combined

## CC(C)C[C@H](NC(=O)[C@H](Cc1ccccc1)NC(=O)c1cnccn1)B(O)O [Velcade, reference compound]
RPMI-8226
  T/C: 0.64

## CO[C@@H]1[C@H](OC(=O)NC(=O)CCl)CC[C@]2(CO2)[C@H]1[C@@]1(C)O[C@@H]1CC=C(C)C [AGM-1470]
[1]
  half-maximal inhibition of vascular endothelial cell proliferation at lower concentration than tumor cell proliferation: 4 logs

## O=c1[nH]cc(F)c(=O)[nH]1 [5-FU, 5-Fluorouracil]
[2]; [7]
  T/C: 0.38
In vivo; male, mouse, in vivo, po
  MTD at 5 days: 30 mg/kg
In vivo; mouse, in vivo
  mean changes in body weight as a consequence of treatment: moderate to no change

## Cn1nnc2c(C(N)=O)ncn2c1=O [Temodar ®, reference compound]
U87 MG ectopic tumors [3]
  %Δ (Percent change in tumor volume from start of treatment): 266%
  inhibition of tumor growth: 34%
[4]
  MTD at 5 days: 42 mg/kg
U87 MG ectopic tumors [5]; Temodar 42 mg/kg p.o., q.d.×5
  T/C: 0.02
  inhibition of tumor growth: 98%

## CC(=O)O[C@H]1C(=O)[C@@]2(C)[C@H]([C@H](OC(=O)c3ccccc3)[C@]3(O)C[C@H](OC(=O)[C@H](O)[C@@H](NC(=O)c4ccccc4)c4ccccc4)C(C)=C1C3(C)C)[C@]1(OC(C)=O)CO[C@@H]1C[C@@H]2O [Paclitaxel, reference compound]
LLC met; Paclitaxel
  T/C: 0.38
H2122
  MST: 24 days

## COc1cc2c(cc1O)CC[C@@H]1[C@@H]2CC[C@]2(C)[C@@H](O)CC[C@@H]12 [2ME2, 2-methoxyestradiol]
U87 MG ectopic tumors [3]
  %Δ (Percent change in tumor volume from start of treatment): 333%
  inhibition of tumor growth: 20%
HUVEC
  IC50: 463 nM
[6]
  anti-proliferative dosage on glioblastoma cells relative to dosage with antiangiogenic effect on HUVEC: nearly five times
LLC met; Cisplatin
  T/C: 0.37
LLC met; Paclitaxel
  T/C: 0.37
PC3
  T − C (Difference in tumor doubling time): 0 days
RPMI-8226
  T/C: 0.66
[2]; [7]
  T/C: 0.37
[2]; study date 29, agent alone (2ME2 200 mg/kg p.o. q.d.; 5-FU 30 mg/kg p.o. q.d.×5)
  T/C: 0.79 and 0.51
Estrogen receptor β
  affinity for estrogen receptor β: low affinity
Estrogen receptor α
  affinity for estrogen receptor α: low affinity
H2122
  MST: 17 days
In vivo; CT-26 bearing BALB/c mice
  mean changes in body weight as a consequence of treatment: moderate to no change
CT-26 cells
  IC50: 3000 nM
U87MG
  %Δ (Percent change in tumor volume from start of treatment): 890%
U87 MG ectopic tumors [5]; 2ME2 200 mg/kg p.o., q.d.
  T/C: 0.61
  inhibition of tumor growth: approximately 40%
U87 MG ectopic tumors [5]; 2ME2 400 mg/kg p.o., q.d.
  T/C: 0.61
  inhibition of tumor growth: approximately 40%

## N.N.[Cl][Pt][Cl] [Cisplatin, reference compound]
LLC met; Cisplatin
  T/C: 0.19
